This note sets out measurements from patent US20240116985A1, “STAPLED PEPTIDES AND METHODS THEREOF” (priority 2020, published 2024).

Values after ≈ are worked out from the molar mass of the structure shown. Read-outs that look alike come from different tables or passages of the source.

In data set [1] the target is T1, full-length beta-Catenin (Uniprot ID P35222) (Homo sapiens, UniProt P35222).
T1 construct: 10 nM full-length beta-Catenin (Uniprot ID P35222)
T1 sequence (P35222 1-781): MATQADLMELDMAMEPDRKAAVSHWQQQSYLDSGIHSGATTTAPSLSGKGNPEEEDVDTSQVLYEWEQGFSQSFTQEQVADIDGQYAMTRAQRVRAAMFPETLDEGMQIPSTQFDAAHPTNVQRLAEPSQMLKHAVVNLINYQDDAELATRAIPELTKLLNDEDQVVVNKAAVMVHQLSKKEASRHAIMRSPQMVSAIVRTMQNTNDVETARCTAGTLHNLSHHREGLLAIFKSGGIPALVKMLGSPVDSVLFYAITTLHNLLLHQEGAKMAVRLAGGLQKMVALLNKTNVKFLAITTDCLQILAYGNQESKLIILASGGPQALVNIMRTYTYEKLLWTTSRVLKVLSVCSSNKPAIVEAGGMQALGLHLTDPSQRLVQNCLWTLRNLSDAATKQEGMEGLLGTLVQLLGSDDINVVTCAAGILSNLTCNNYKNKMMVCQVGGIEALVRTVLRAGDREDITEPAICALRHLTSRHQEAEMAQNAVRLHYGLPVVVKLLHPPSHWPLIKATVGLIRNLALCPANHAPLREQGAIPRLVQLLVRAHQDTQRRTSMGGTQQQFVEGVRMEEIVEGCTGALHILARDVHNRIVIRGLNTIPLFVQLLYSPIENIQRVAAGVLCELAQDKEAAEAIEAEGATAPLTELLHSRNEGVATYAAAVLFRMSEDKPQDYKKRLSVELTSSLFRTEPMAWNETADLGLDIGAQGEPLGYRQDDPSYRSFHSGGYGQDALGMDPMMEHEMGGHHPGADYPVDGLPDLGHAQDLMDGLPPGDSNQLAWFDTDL
Description: Fluorescence polarization IC50 (beta-catenin / 5FAM-TCF4 10-53 competition). In kind it is binding. The following applies: fluorescence polarization.

A short description of a further data set: Solubility in PBS. The data set is classed as physicochemical. In a few lines:
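Solubility is derived from HPLC peak areas: the ratio of the PBS supernatant peak to a 50 μM DMSO peptide peak, times 50 uM.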

Setting [2] is: beta-catenin, read-out: FP EC50.

Turning to `CC(=O)N1CCC[C@]12CC=CCCCC1(CCCC=CCCCOC(=O)N3CC[C@@](C(=O)N[C@@H](Cc4ccccc4)C(=O)N[C@@H](Cc4csc5ccccc45)C(=O)N[C@@H](CCC(N)=O)C(N)=O)(C3)NC(=O)[C@H](CC(C)C)NC(=O)[C@H](Cc3ccccc3)NC(=O)[C@H](C)NC(=O)[C@H](C)NC(=O)[C@H]([C@@H](C)O)NC(=O)[C@H](CC(N)=O)NC1=O)NC(=O)[C@H](C)NC(=O)[C@H](CC(=O)O)NC2=O` (stereo partly drawn) [I-1296, Ac-PL3-Asp-Ala-B5-Asn-Thr-Ala-Ala-Phe-Leu-PyrS2-Phe-BztA-Gln-NH2], the IC50 in data set [1] (setting [2]) and in data set [1] (read-out: beta-Catenin FP IC50) was 3780 nM throughout. The “Solubility” value in the data set “Solubility in PBS” was 10 µM (≈ 18.4 µg/mL).

`CC(=O)N1CCC[C@]12CC=CCCCC1(CCCC=CCCCOC(=O)N3CC[C@@](C(=O)N[C@@H](Cc4ccsc4)C(=O)N[C@@H](Cc4csc5ccccc45)C(=O)N[C@H](CO)[C@@H](C)O)(C3)NC(=O)[C@H]([C@@H](C)O)NC(=O)[C@H](Cc3ccccc3)NC(=O)[C@H](C)NC(=O)[C@H](C)NC(=O)[C@H](CC(=O)O)NC(=O)[C@H](CC(=O)O)NC1=O)NC(=O)[C@H](CC(C)(C)C)NC(=O)[C@H](CC(=O)O)NC2=O` (stereo partly drawn) [I-1306, Ac-PL3-Asp-Npg-B5-Asp-Asp-Ala-Ala-Phe-Thr-PyrS2-3Thi-BztA-Thro1]: the IC50 in data set [1] (read-out: beta-Catenin FP IC50) came to 6 nM. For the same molecule, the “Solubility” value in “Solubility in PBS” worked out at 50 µM (≈ 93.3 µg/mL).

As for `CC(=O)N1CCC[C@]12CC=CCCCC1(CCCC=CCCCOC(=O)N3CC[C@@](C(=O)N[C@@H](Cc4ccccc4Cl)C(=O)N[C@@H](Cc4csc5ccccc45)C(=O)N[C@H](CO)[C@@H](C)O)(C3)NC(=O)[C@H](CC(C)C)NC(=O)[C@H](Cc3ccccc3)NC(=O)[C@H](C)NC(=O)[C@H](C)NC(=O)[C@H](CC(=O)O)NC(=O)[C@H](CC(=O)O)NC1=O)NC(=O)[C@H](CC1CCCCC1)NC(=O)[C@H](CC(=O)O)NC2=O` (stereo partly drawn) [I-1307, Ac-PL3-Asp-Cha-B5-Asp-Asp-Ala-Ala-Phe-Leu-PyrS2-2C1F-BztA-Thro1], in data set [1] (read-out: beta-Catenin FP IC50), the IC50 is 21 nM. Further, the concentration in solution in “Solubility in PBS” (Solubility (uM)) (Solubility) came to 20 µM (≈ 38.6 µg/mL).

For `CC(=O)N1CCC[C@]12CC=CCCCC1(CCCC=CCCCOC(=O)N3CC[C@@](C(=O)N[C@@H](Cc4ccccc4Cl)C(=O)N[C@@H](Cc4csc5ccccc45)C(=O)N[C@H](CO)[C@@H](C)O)(C3)NC(=O)[C@H](CC(C)C)NC(=O)[C@H](Cc3ccccc3)NC(=O)[C@H](C)NC(=O)[C@H](CCCCNC(C)C)NC(=O)[C@H](CC(=O)O)NC(=O)[C@H](CC(=O)O)NC1=O)NC(=O)[C@H](CC(C)(C)C)NC(=O)[C@H](CC(=O)O)NC2=O` (stereo partly drawn) [I-1313, Ac-PL3-Asp-Npg-B5-Asp-Asp-iPrLys-Ala-Phe-Leu-PyrS2-2C1F-BztA-Thro1], in data set [1] (read-out: beta-Catenin FP IC50), the IC50 worked out at 12 nM. The “Solubility” value in “Solubility in PBS” is 10 µM (≈ 20 µg/mL).

`CC(=O)N1CCC[C@]12CC=CCCCC1(CCCC=CCCCOC(=O)N3CC[C@@](C(=O)N[C@@H](Cc4ccccc4C(F)(F)F)C(=O)N[C@@H](Cc4csc5ccccc45)C(=O)N[C@H](CO)[C@@H](C)O)(C3)NC(=O)[C@H](Cc3ccccc3)NC(=O)[C@H](Cc3ccccc3)NC(=O)[C@H](C)NC(=O)[C@H](C)NC(=O)[C@H](Cc3cccc(C(=O)O)c3)NC(=O)[C@H](CC(=O)O)NC1=O)NC(=O)[C@H](CC(C)(C)C)NC(=O)[C@H](CC(=O)O)NC2=O` (stereo partly drawn) [I-1343, Ac-PL3-Asp-Npg-B5-Asp-3COOHF-Ala-Ala-Phe-Phe-PyrS2-2F3MeF-BztA-Thro1]: the IC50 in data set [1] (read-out: beta-Catenin FP IC50) was found to be 150 nM. In addition, the “Solubility” value in “Solubility in PBS” worked out at 10 µM (≈ 20.5 µg/mL).

Consider `CC(C)C[C@@H]1NC(=O)[C@H](Cc2ccccc2)NC(=O)[C@H](C)NC(=O)[C@H](C)NC(=O)[C@H](CC(=O)O)NC(=O)[C@H](CC(=O)O)NC(=O)C2(CCCC=CCCCOC(=O)N3CC[C@@](C(=O)N[C@@H](Cc4ccccc4)C(=O)N[C@@H](Cc4csc5ccccc45)C(=O)N[C@@H](CCC(N)=O)C(N)=O)(C3)NC1=O)CCCC=CC[C@]1(CCCN1C(=O)CCCN(C)C)C(=O)N[C@@H](CC(=O)O)C(=O)N[C@@H](CC(C)(C)C)C(=O)N2` (stereo partly drawn) [I-1358, NdiMeButC-PL3-Asp-Npg-B5-Asp-Asp-Ala-Ala-Phe-Leu-PyrS2-Phe-BztA-Gln-NH2], for which the IC50 in data set [1] (setting [2]) and in data set [1] (read-out: beta-Catenin FP IC50) was 19 nM throughout. The “Solubility” value in the data set “Solubility in PBS” is 10 µM (≈ 19.8 µg/mL).

Turning to `CC(C)C[C@@H]1NC(=O)[C@H](Cc2ccccc2)NC(=O)[C@H](C)NC(=O)[C@H](C)NC(=O)[C@H](CC(=O)O)NC(=O)[C@H](CC(=O)O)NC(=O)C2(CCCC=CCCCOC(=O)N3CC[C@@](C(=O)N[C@@H](Cc4ccccc4)C(=O)N[C@@H](Cc4csc5ccccc45)C(=O)N[C@@H](CCC(N)=O)C(N)=O)(C3)NC1=O)CCCC=CC[C@]1(CCCN1C(=O)CCCN(C)C)C(=O)N[C@@H](CC(=O)O)C(=O)N[C@@H](CC(C)(C)C)C(=O)N2` (stereo partly drawn) [I-1359, NdiMeButC-PL3-Asp-Npg-B5-Asp-Asp-Ala-Ala-Phe-Leu-PyrS2-Phe-BztA-Gln-NH2], the IC50 in data set [1] (setting [2]) and in data set [1] (read-out: beta-Catenin FP IC50) was 88 nM throughout. In the data set “Solubility in PBS”, the “Solubility” value amounted to 34 µM (≈ 67.4 µg/mL).

On to `CC(=O)N1CCC[C@]12CC=CCCCC1(CCCC=CCCCOC(=O)N3CC[C@@](C(=O)N[C@@H](Cc4ccccc4)C(=O)N[C@@H](Cc4csc5ccccc45)C(=O)N[C@@H](CCC(N)=O)C(N)=O)(C3)NC(=O)[C@H](CC(C)C)NC(=O)[C@H](Cc3ccccc3)NC(=O)[C@H](C)NC(=O)[C@H](CCCCNC(C)C)NC(=O)[C@H]([C@@H](C)O)NC(=O)[C@H](CC(N)=O)NC1=O)NC(=O)[C@H](C)NC(=O)[C@H](CC(=O)O)NC2=O` (stereo partly drawn) [I-1376, Ac-PL3-Asp-Ala-B5-Asn-Thr-iPrLys-Ala-Phe-Leu-PyrS2-Phe-BztA-Gln-NH2], for which the IC50 in data set [1] (read-out: beta-Catenin FP IC50) came out at 4210 nM. In the data set “Solubility in PBS”, the “Solubility” value stood at 10 µM (≈ 19.4 µg/mL).

In the case of `CC(=O)N1CCC[C@]12CC=CCCCC1(CCCC=CCCCOC(=O)N3CC[C@@](C(=O)N[C@@H](Cc4ccccc4)C(=O)N[C@@H](Cc4csc5ccccc45)C(=O)N[C@@H](CCCCN)C(N)=O)(C3)NC(=O)[C@H](CC(C)C)NC(=O)[C@H](Cc3ccccc3)NC(=O)[C@H](C)NC(=O)[C@H](CCCCNC(C)C)NC(=O)[C@H]([C@@H](C)O)NC(=O)[C@H](CC(N)=O)NC1=O)NC(=O)[C@H](C)NC(=O)[C@H](CC(=O)O)NC2=O` (stereo partly drawn) [I-1377, Ac-PL3-Asp-Ala-B5-Asn-Thr-iPrLys-Ala-Phe-Leu-PyrS2-Phe-BztA-Lys-NH2], the IC50 in data set [1] (read-out: beta-Catenin FP IC50) is 1000 nM. Besides, the “Solubility” value in “Solubility in PBS” was determined as 10 µM (≈ 19.4 µg/mL).

For the molecule `CC(=O)N1CCC[C@]12CC=CCCCC1(CCCC=CCCCOC(=O)N3CC[C@@](C(=O)N[C@@H](Cc4ccccc4)C(=O)N[C@@H](Cc4csc5ccccc45)C(=O)N[C@H](C(N)=O)[C@@H](C)O)(C3)NC(=O)[C@H](CC(C)C)NC(=O)[C@H](Cc3ccccc3)NC(=O)[C@H](C)NC(=O)[C@H](CCCCNC(C)C)NC(=O)[C@H]([C@@H](C)O)NC(=O)[C@H](CC(N)=O)NC1=O)NC(=O)[C@H](C)NC(=O)[C@H](CC(=O)O)NC2=O` (stereo partly drawn) [I-1378, Ac-PL3-Asp-Ala-B5-Asn-Thr-iPrLys-Ala-Phe-Leu-PyrS2-Phe-BztA-Thr-NH2], the IC50 in data set [1] (read-out: beta-Catenin FP IC50) amounted to 6170 nM. In addition, the “Solubility” value in the data set “Solubility in PBS” was found to be 10 µM (≈ 19.1 µg/mL).

`CC(=O)N1CCC[C@]12CC=CCCCC1(CCCC=CCCCOC(=O)N3CC[C@@](C(=O)N[C@@H](Cc4ccccc4)C(=O)N[C@@H](Cc4csc5ccccc45)C(=O)N[C@@H](CCC(N)=O)C(N)=O)(C3)NC(=O)[C@H](CC(C)C)NC(=O)[C@H](Cc3ccccc3)NC(=O)[C@H](C)NC(=O)[C@H](CCCCNC(C)C)NC(=O)[C@H](CCC(N)=O)NC(=O)[C@H](CC(N)=O)NC1=O)NC(=O)[C@H](C)NC(=O)[C@H](CC(=O)O)NC2=O` (stereo partly drawn) [I-1379, Ac-PL3-Asp-Ala-B5-Asn-Gln-iPrLys-Ala-Phe-Leu-PyrS2-Phe-BztA-Gln-NH2]: the IC50 in data set [1] (read-out: beta-Catenin FP IC50) came out at 1440 nM. In addition, the “Solubility” value in the data set “Solubility in PBS” was determined as 10 µM (≈ 19.7 µg/mL).
